According to ChEMBL document CHEMBL1221346, “Synthesis and biological activity of N-substituted aminocarbonyl-1,3-dioxolanes as VLA-4 antagonists” (Bioorg Med Chem Lett, 2010):
Peptide text beside a SMILES is read from it. * marks the point of attachment. Tos = Cc1ccc(S(=O)(=O)*)cc1

tested on: not listed separately; experiment: Metabolic stability in human liver microsome at 8 uM after 1 hr; format: ADME; conditions: liver microsomes, read-out: Stability

Compound | remaining at 1 h, 8 µM
O=C(O)[C@H](Cc1ccc(OCc2c(Cl)cccc2Cl)cc1)NC(=O)[C@@H]1OCO[C@H]1C(=O)NC1CC1 | 72%
O=C(O)[C@H](Cc1ccc(OCc2c(Cl)cccc2Cl)cc1)NC(=O)[C@@H]1OCO[C@H]1C(=O)Nc1nccs1 | 52%

tested on: not listed separately; experiment: Oral bioavailability in rat; format: ADME, organism-based; conditions: in vivo

Compound | bioavailability
Cc1ccc(S(=O)(=O)N2CCC[C@H]2C(=O)N[C@@H](Cc2ccccc2)C(=O)O)cc1 (Tos-Pro-Phe-OH) | 10%

biological target: T1, Integrin alpha-4 (Homo sapiens, UniProt P13612); experiment: Displacement of VCAM1 from VLA4 receptor in human U937 cells; format: cell-based, U-937; conditions: not given
T1 sequence (P13612 whole entry): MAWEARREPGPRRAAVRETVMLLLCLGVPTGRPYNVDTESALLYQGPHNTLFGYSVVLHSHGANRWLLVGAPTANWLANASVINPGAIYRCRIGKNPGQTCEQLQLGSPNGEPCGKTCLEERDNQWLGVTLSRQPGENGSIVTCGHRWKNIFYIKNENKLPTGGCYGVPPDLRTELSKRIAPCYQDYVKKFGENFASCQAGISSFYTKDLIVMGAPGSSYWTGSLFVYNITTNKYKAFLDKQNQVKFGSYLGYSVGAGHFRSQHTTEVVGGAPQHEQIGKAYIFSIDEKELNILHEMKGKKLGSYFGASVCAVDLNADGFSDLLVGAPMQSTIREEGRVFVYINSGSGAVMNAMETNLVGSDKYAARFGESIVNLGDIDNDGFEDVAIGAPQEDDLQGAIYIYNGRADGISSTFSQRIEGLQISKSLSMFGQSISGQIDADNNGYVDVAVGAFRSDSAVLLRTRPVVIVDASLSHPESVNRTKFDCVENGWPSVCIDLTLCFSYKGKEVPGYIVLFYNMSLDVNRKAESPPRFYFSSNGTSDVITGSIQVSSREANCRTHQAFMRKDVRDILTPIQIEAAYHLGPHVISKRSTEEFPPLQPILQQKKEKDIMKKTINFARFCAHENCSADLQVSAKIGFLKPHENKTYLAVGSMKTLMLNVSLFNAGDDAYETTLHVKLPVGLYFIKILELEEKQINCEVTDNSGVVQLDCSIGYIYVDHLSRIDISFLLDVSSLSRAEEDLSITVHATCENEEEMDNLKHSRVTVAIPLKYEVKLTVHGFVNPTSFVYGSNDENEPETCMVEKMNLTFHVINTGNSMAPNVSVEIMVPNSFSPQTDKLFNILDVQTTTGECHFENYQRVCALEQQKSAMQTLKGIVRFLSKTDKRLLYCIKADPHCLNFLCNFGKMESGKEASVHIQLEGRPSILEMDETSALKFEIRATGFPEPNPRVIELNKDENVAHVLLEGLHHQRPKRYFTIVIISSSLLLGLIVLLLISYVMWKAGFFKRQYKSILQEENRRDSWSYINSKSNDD

Compound | IC50
CCCCCCCNC(=O)[C@@H]1OCO[C@H]1C(=O)N[C@@H](Cc1ccc(OCc2c(Cl)cccc2Cl)cc1)C(=O)O | 4400 nM
O=C(Nc1ccc(C[C@H](NC(=O)[C@@H]2OCO[C@H]2C(=O)Nc2ccccc2-c2ccccc2)C(=O)O)cc1)c1ccncc1 | 2700 nM
O=C(Nc1ccc(C[C@H](NC(=O)[C@@H]2OCO[C@H]2C(=O)Nc2ccccc2-c2ccccc2)C(=O)O)cc1)c1ccccn1 | 8300 nM
O=C(Nc1ccc(C[C@H](NC(=O)[C@@H]2OCO[C@H]2C(=O)Nc2ccccc2-c2ccccc2)C(=O)O)cc1)c1cccnc1 | 9500 nM
O=C(Nc1ccc(C[C@H](NC(=O)[C@@H]2OCO[C@H]2C(=O)Nc2ccccc2-c2ccccc2)C(=O)O)cc1)c1cc(Cl)nc(Cl)c1 | 6300 nM
O=C(Nc1ccc(C[C@H](NC(=O)[C@@H]2OCO[C@H]2C(=O)Nc2ccccc2-c2ccccc2)C(=O)O)cc1)c1ccccc1 | 9000 nM
COc1ccccc1C(=O)Nc1ccc(C[C@H](NC(=O)[C@@H]2OCO[C@H]2C(=O)Nc2ccccc2-c2ccccc2)C(=O)O)cc1 | 6300 nM
O=C(O)[C@H](Cc1ccc(OCc2c(F)cccc2F)cc1)NC(=O)[C@@H]1OCO[C@H]1C(=O)Nc1ccccc1-c1ccccc1 | 7900 nM
O=C(O)[C@H](Cc1ccc(OCc2ccccc2Cl)cc1)NC(=O)[C@@H]1OCO[C@H]1C(=O)Nc1ccccc1-c1ccccc1 | 8700 nM
O=C(O)[C@H](Cc1ccc(OCc2c(Cl)cccc2Cl)cc1)NC(=O)[C@@H]1OCO[C@H]1C(=O)NC1CCCCC1 | 1400 nM
CNC(=O)[C@@H]1OCO[C@H]1C(=O)N[C@@H](Cc1ccc(OCc2c(Cl)cccc2Cl)cc1)C(=O)O | 1200 nM
CCNC(=O)[C@@H]1OCO[C@H]1C(=O)N[C@@H](Cc1ccc(OCc2c(Cl)cccc2Cl)cc1)C(=O)O | 2100 nM
CCCCNC(=O)[C@@H]1OCO[C@H]1C(=O)N[C@@H](Cc1ccc(OCc2c(Cl)cccc2Cl)cc1)C(=O)O | 1500 nM
CN(C)C(=O)[C@@H]1OCO[C@H]1C(=O)N[C@@H](Cc1ccc(OCc2c(Cl)cccc2Cl)cc1)C(=O)O | 1500 nM
CC(C)NC(=O)[C@@H]1OCO[C@H]1C(=O)N[C@@H](Cc1ccc(OCc2c(Cl)cccc2Cl)cc1)C(=O)O | 6600 nM
CC(C)(C)NC(=O)[C@@H]1OCO[C@H]1C(=O)N[C@@H](Cc1ccc(OCc2c(Cl)cccc2Cl)cc1)C(=O)O | 1200 nM
O=C(O)[C@H](Cc1ccc(OCc2c(Cl)cccc2Cl)cc1)NC(=O)[C@@H]1OCO[C@H]1C(=O)NCc1ccc2c(c1)OCO2 | 3000 nM
O=C(O)[C@H](Cc1ccc(OCc2c(Cl)cccc2Cl)cc1)NC(=O)[C@@H]1OCO[C@H]1C(=O)Nc1ccc(Cl)cc1 | 2800 nM
O=C(O)[C@H](Cc1ccc(OCc2c(Cl)cccc2Cl)cc1)NC(=O)[C@@H]1OCO[C@H]1C(=O)Nc1ccccc1 | 1500 nM
Cc1nnc(NC(=O)[C@@H]2OCO[C@H]2C(=O)N[C@@H](Cc2ccc(OCc3c(Cl)cccc3Cl)cc2)C(=O)O)s1 | 1500 nM
Cc1ccc(-n2nc(C(C)(C)C)cc2NC(=O)[C@@H]2OCO[C@H]2C(=O)N[C@@H](Cc2ccc(OCc3c(Cl)cccc3Cl)cc2)C(=O)O)cc1 | 2600 nM
O=C(O)[C@H](Cc1ccc(OCc2c(Cl)cccc2Cl)cc1)NC(=O)[C@@H]1OCO[C@H]1C(=O)N1CCOCC1 | 3400 nM

Further lines, results first:

IC50 | Compound
100 nM | O=C(Nc1ccc(C[C@H](NC(=O)[C@@H]2OCO[C@H]2C(=O)Nc2ccccc2-c2ccccc2)C(=O)O)cc1)c1c(Cl)cccc1Cl
500 nM | O=C(O)[C@H](Cc1ccc(OCc2c(Cl)cccc2Cl)cc1)NC(=O)[C@@H]1OCO[C@H]1C(=O)Nc1ccccc1-c1ccccc1
1100 nM | CC(C)CCNC(=O)[C@@H]1OCO[C@H]1C(=O)N[C@@H](Cc1ccc(OCc2c(Cl)cccc2Cl)cc1)C(=O)O
300 nM | O=C(O)[C@H](Cc1ccc(OCc2c(Cl)cccc2Cl)cc1)NC(=O)[C@@H]1OCO[C@H]1C(=O)NC1CC1
600 nM | O=C(O)[C@H](Cc1ccc(OCc2c(Cl)cccc2Cl)cc1)NC(=O)[C@@H]1OCO[C@H]1C(=O)Nc1nc2ccccc2s1
700 nM | O=C(O)[C@H](Cc1ccc(OCc2c(Cl)cccc2Cl)cc1)NC(=O)[C@@H]1OCO[C@H]1C(=O)NCc1cccs1
600 nM | O=C(O)[C@H](Cc1ccc(OCc2c(Cl)cccc2Cl)cc1)NC(=O)[C@@H]1OCO[C@H]1C(=O)NCCc1c[nH]c2ccccc12
600 nM | O=C(O)[C@H](Cc1ccc(OCc2c(Cl)cccc2Cl)cc1)NC(=O)[C@@H]1OCO[C@H]1C(=O)Nc1ccccc1F
700 nM | O=C(O)[C@H](Cc1ccc(OCc2c(Cl)cccc2Cl)cc1)NC(=O)[C@@H]1OCO[C@H]1C(=O)Nc1ccccc1Cl
600 nM | COc1ccccc1NC(=O)[C@@H]1OCO[C@H]1C(=O)N[C@@H](Cc1ccc(OCc2c(Cl)cccc2Cl)cc1)C(=O)O
900 nM | O=C(O)[C@H](Cc1ccc(OCc2c(Cl)cccc2Cl)cc1)NC(=O)[C@@H]1OCO[C@H]1C(=O)Nc1ccccc1C(F)(F)F
200 nM | O=C(O)[C@H](Cc1ccc(OCc2c(Cl)cccc2Cl)cc1)NC(=O)[C@@H]1OCO[C@H]1C(=O)Nc1nccs1
500 nM | O=C(O)[C@H](Cc1ccc(OCc2c(Cl)cccc2Cl)cc1)NC(=O)[C@@H]1OCO[C@H]1C(=O)Nc1c(F)cccc1F
700 nM | O=C(O)[C@H](Cc1ccc(OCc2c(Cl)cccc2Cl)cc1)NC(=O)[C@@H]1OCO[C@H]1C(=O)Nc1c(Cl)cccc1Cl
400 nM | O=C(O)[C@H](Cc1ccc(OCc2c(Cl)cccc2Cl)cc1)NC(=O)[C@@H]1OCO[C@H]1C(=O)Nc1c(Cl)cncc1Cl
1000 nM | CC(C)(C)c1cc(NC(=O)[C@@H]2OCO[C@H]2C(=O)N[C@@H](Cc2ccc(OCc3c(Cl)cccc3Cl)cc2)C(=O)O)n(Cc2ccccc2)n1
